# Measured values from ChEMBL document CHEMBL3352703, “Sulfamates of methyl triterpenoates are effective and competitive inhibitors of carbonic anhydrase II” (Eur J Med Chem, 2014).
# Columns and labels:
# [1] = Cytotoxicity against mouse NIH/3T3 cells after 96 hrs by SRB assay; type: cell-based; conditions: NIH3T3, 96 h
# [2] = molecular target: Carbonic anhydrase 2 (Bos taurus, UniProt P00921); test: Inhibition of bovine erythrocyte carbonic anhydrase 2 using 4-nitrophenyl acetate substrate by photometric assay
# Sequence of Carbonic anhydrase 2 (P00921 whole entry): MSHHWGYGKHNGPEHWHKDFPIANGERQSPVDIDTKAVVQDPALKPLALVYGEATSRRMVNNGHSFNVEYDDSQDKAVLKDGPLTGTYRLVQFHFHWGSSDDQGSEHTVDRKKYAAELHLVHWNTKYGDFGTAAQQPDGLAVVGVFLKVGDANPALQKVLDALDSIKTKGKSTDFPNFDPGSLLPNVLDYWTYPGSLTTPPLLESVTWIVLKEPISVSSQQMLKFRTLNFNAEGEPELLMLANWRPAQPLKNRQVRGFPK
Compound,Ki [2],IC50 [1]
C=C(C)[C@@H]1CC[C@]2(C(=O)OC)CC[C@]3(C)[C@H](CC[C@@H]4[C@@]5(C)CC[C@H](OS(N)(=O)=O)C(C)(C)[C@@H]5CC[C@]43C)[C@@H]12,2.16 µM,9.8 µM
COC(=O)[C@]12CCC(C)(C)C[C@H]1C1=CC[C@@H]3[C@@]4(C)C[C@@H](O)[C@H](OS(N)(=O)=O)C(C)(C)[C@@H]4CC[C@@]3(C)[C@]1(C)CC2,1.41 µM,2.2 µM
COC(=O)[C@]12CC[C@@H](C(C)=O)[C@@H]1[C@H]1CC[C@@H]3[C@@]4(C)CC[C@H](OS(N)(=O)=O)C(C)(C)[C@@H]4CC[C@@]3(C)[C@]1(C)CC2,1.74 µM,> 30 µM
COC(=O)[C@]12CC[C@@H](C)[C@H](C)[C@H]1C1=CC(=O)[C@@H]3[C@@]4(C)CC[C@H](OS(N)(=O)=O)C(C)(C)[C@@H]4CC[C@@]3(C)[C@]1(C)CC2,> 15 µM,25.9 µM
COC(=O)[C@]12CC[C@@H](C)[C@H](C)[C@H]1C1=CC[C@@H]3[C@@]4(C)CC[C@H](OS(N)(=O)=O)C(C)(C)[C@@H]4CC[C@@]3(C)[C@]1(C)CC2,1.11 µM,22.8 µM
COC(=O)[C@@]1(C)CC[C@]2(C)CC[C@]3(C)C(=CC[C@@H]4[C@@]5(C)CC[C@H](OS(N)(=O)=O)C(C)(C)[C@@H]5CC[C@]43C)[C@@H]2C1,> 4 µM,> 30 µM
COC(=O)[C@@]1(C)CC[C@]2(C)CC[C@]3(C)C(=CC[C@@H]4[C@@]5(C)CC[C@H](O)C(C)(C)[C@@H]5CC[C@]43C)[C@@H]2C1,> 10 µM,–
COC(=O)[C@]12CC[C@@H](C)[C@H](C)[C@H]1C1=CC[C@@H]3[C@@]4(C)CC[C@H](O)C(C)(C)[C@@H]4CC[C@@]3(C)[C@]1(C)CC2 [METHYL URSOLATE],> 10 µM,–
COC(=O)[C@@]1(C)CC[C@]2(C)CC[C@]3(C)C(=CC(=O)[C@@H]4[C@@]5(C)CC[C@H](O)C(C)(C)[C@@H]5CC[C@]43C)[C@@H]2C1,> 10 µM,–
C=C(C)[C@@H]1CC[C@]2(C(=O)OC)CC[C@]3(C)[C@H](CC[C@@H]4[C@@]5(C)CC[C@H](O)C(C)(C)[C@@H]5CC[C@]43C)[C@@H]12 [METHYL BETULINATE],> 50 µM,–
COC(=O)[C@]12CC[C@@H](C(C)=O)[C@@H]1[C@H]1CC[C@@H]3[C@@]4(C)CC[C@H](O)C(C)(C)[C@@H]4CC[C@@]3(C)[C@]1(C)CC2,> 5 µM,–

# Second part, led by results:
Ki [2],Compound,IC50 [1]
> 20 µM,COC(=O)[C@]12CCC(C)(C)C[C@H]1C1=CC[C@@H]3[C@@]4(C)C[C@@H](OS(N)(=O)=O)[C@H](O)C(C)(C)[C@@H]4CC[C@@]3(C)[C@]1(C)CC2,12.6 µM
1.49 µM,COC(=O)[C@]12CCC(C)(C)C[C@H]1C1=CC(=O)[C@@H]3[C@@]4(C)CC[C@H](OS(N)(=O)=O)C(C)(C)[C@@H]4CC[C@@]3(C)[C@]1(C)CC2,25.9 µM
> 25 µM,COC(=O)[C@]12CCC(C)(C)C[C@H]1C1=CC[C@@H]3[C@@]4(C)C[C@@H](O)[C@H](O)C(C)(C)[C@@H]4CC[C@@]3(C)[C@]1(C)CC2 [MASLINIC ACID METHYL ESTER],–
> 10 µM,COC(=O)[C@]12CCC(C)(C)C[C@H]1C1=CC[C@@H]3[C@@]4(C)CC[C@H](O)C(C)(C)[C@@H]4CC[C@@]3(C)[C@]1(C)CC2 [METHYL OLEANOLATE],–
> 50 µM,COC(=O)[C@]12CCC(C)(C)C[C@H]1C1=CC(=O)[C@@H]3[C@@]4(C)CC[C@H](O)C(C)(C)[C@@H]4CC[C@@]3(C)[C@]1(C)CC2,–
1.51 µM,COC(=O)[C@@]1(C)CC[C@]2(C)CC[C@]3(C)C(=CC(=O)[C@@H]4[C@@]5(C)CC[C@H](OS(N)(=O)=O)C(C)(C)[C@@H]5CC[C@]43C)[C@@H]2C1,> 30 µM
> 50 µM,COC(=O)[C@]12CC[C@@H](C)[C@H](C)[C@H]1C1=CC(=O)[C@@H]3[C@@]4(C)CC[C@H](O)C(C)(C)[C@@H]4CC[C@@]3(C)[C@]1(C)CC2,–
0.308 µM,COC(=O)[C@]12CCC(C)(C)C[C@H]1C1=CC[C@@H]3[C@@]4(C)CC[C@H](OS(N)(=O)=O)C(C)(C)[C@@H]4CC[C@@]3(C)[C@]1(C)CC2,12.8 µM
